# Results published in ChEMBL document CHEMBL3994622, “Design and synthesis of new RAF kinase-inhibiting antiproliferative quinoline derivatives. Part 2: Diarylurea derivatives” (Eur J Med Chem, 2017).
# Assays:
# [1] = molecular target: Serine/threonine-protein kinase B-raf (Homo sapiens, UniProt P15056); assay: Inhibition of human BRAF using MEK1 as substrate in presence of [33P]ATP by Hotspot assay
# [2] = molecular target: Serine/threonine-protein kinase B-raf (Homo sapiens, UniProt P15056, V600E); assay: Inhibition of human BRAF V600E mutant using MEK1 as substrate in presence of [33P]ATP by Hotspot assay
# EKVX [3] = assay: Growth inhibition of human EKVX cells assessed as cell growth at 0.003 uM incubated for 48 hrs by sulforhodamine B assay relative to control; assay type: functional; conditions: read-out: Activity
# HL-60(TB) [4] = assay: Growth inhibition of human HL-60(TB) cells assessed as cell growth at 0.05 uM incubated for 48 hrs by sulforhodamine B assay relative to control; assay type: functional; conditions: HL-60, 48 h, read-out: Activity
# HL-60(TB) [5] = assay: Growth inhibition of human HL-60(TB) cells assessed as cell growth at 0.005 uM incubated for 48 hrs by sulforhodamine B assay relative to control; assay type: functional; conditions: HL-60, 48 h, read-out: Activity
# COLO 205 [6] = assay: Growth inhibition of human COLO205 cells assessed as cell growth at 0.005 uM incubated for 48 hrs by sulforhodamine B assay relative to control; assay type: functional; conditions: COLO 205, 48 h, read-out: Activity
# SK-MEL-2 [7] = assay: Growth inhibition of human SK-MEL-2 cells assessed as cell growth at 0.005 uM incubated for 48 hrs by sulforhodamine B assay relative to control; assay type: functional; conditions: SK-MEL-2, 48 h, read-out: Activity
# DU-145 [8] = assay: Growth inhibition of human DU145 cells assessed as cell growth at 0.005 uM incubated for 48 hrs by sulforhodamine B assay relative to control; assay type: functional; conditions: DU-145, 48 h, read-out: Activity
# EKVX [9] = assay: Growth inhibition of human EKVX cells assessed as cell growth at 0.05 uM incubated for 48 hrs by sulforhodamine B assay relative to control; assay type: functional; conditions: read-out: Activity
# NCI-H226 = assay: Growth inhibition of human NCI-H226 cells assessed as cell growth at 0.05 uM incubated for 48 hrs by sulforhodamine B assay relative to control; assay type: functional; conditions: NCI-H226, 48 h, read-out: Activity
# OVCAR-8 = assay: Growth inhibition of human OVCAR8 cells assessed as cell growth at 0.05 uM incubated for 48 hrs by sulforhodamine B assay relative to control; assay type: functional; conditions: OVCAR-8, 48 h, read-out: Activity
# RPMI-8226 = assay: Growth inhibition of human RPMI8226 cells assessed as cell growth at 0.5 uM incubated for 48 hrs by sulforhodamine B assay relative to control; assay type: functional; conditions: RPMI-8226, 48 h, read-out: Activity
# HOP-62 = assay: Growth inhibition of human HOP62 cells assessed as cell growth at 0.5 uM incubated for 48 hrs by sulforhodamine B assay relative to control; assay type: functional; conditions: HOP-62, 48 h, read-out: Activity
# NCI-H460 = assay: Growth inhibition of human NCI-H460 cells assessed as cell growth at 0.5 uM incubated for 48 hrs by sulforhodamine B assay relative to control; assay type: functional; conditions: NCI-H460, 48 h, read-out: Activity
# NCI-H522 = assay: Growth inhibition of human NCI-H522 cells assessed as cell growth at 0.5 uM incubated for 48 hrs by sulforhodamine B assay relative to control; assay type: functional; conditions: NCI-H522, 48 h, read-out: Activity
# COLO 205 [10] = assay: Growth inhibition of human COLO205 cells assessed as cell growth at 0.5 uM incubated for 48 hrs by sulforhodamine B assay relative to control; assay type: functional; conditions: COLO 205, 48 h, read-out: Activity
# SF-268 = assay: Growth inhibition of human SF268 cells assessed as cell growth at 0.5 uM incubated for 48 hrs by sulforhodamine B assay relative to control; assay type: functional; conditions: SF-268, 48 h, read-out: Activity
# SNB-75 [11] = assay: Growth inhibition of human SNB75 cells assessed as cell growth at 0.5 uM incubated for 48 hrs by sulforhodamine B assay relative to control; assay type: functional; conditions: SNB-75, 48 h, read-out: Activity
# SK-MEL-2 [12] = assay: Growth inhibition of human SK-MEL-2 cells assessed as cell growth at 0.5 uM incubated for 48 hrs by sulforhodamine B assay relative to control; assay type: functional; conditions: SK-MEL-2, 48 h, read-out: Activity
# SK-MEL-28 = assay: Growth inhibition of human SK-MEL-28 cells assessed as cell growth at 0.5 uM incubated for 48 hrs by sulforhodamine B assay relative to control; assay type: functional; conditions: SK-MEL-28, 48 h, read-out: Activity
# SK-MEL-5 = assay: Growth inhibition of human SK-MEL-5 cells assessed as cell growth at 0.5 uM incubated for 48 hrs by sulforhodamine B assay relative to control; assay type: functional; conditions: SK-MEL-5, 48 h, read-out: Activity
# OVCAR-3 [13] = assay: Growth inhibition of human OVCAR3 cells assessed as cell growth at 0.5 uM incubated for 48 hrs by sulforhodamine B assay relative to control; assay type: functional; conditions: OVCAR-3, 48 h, read-out: Activity
# 786-0 = assay: Growth inhibition of human 786-0 cells assessed as cell growth at 0.5 uM incubated for 48 hrs by sulforhodamine B assay relative to control; assay type: functional; conditions: 786-0, 48 h, read-out: Activity
# DU-145 [14] = assay: Growth inhibition of human DU145 cells assessed as cell growth at 0.5 uM incubated for 48 hrs by sulforhodamine B assay relative to control; assay type: functional; conditions: DU-145, 48 h, read-out: Activity
# SR = assay: Growth inhibition of human SR cells assessed as cell growth at 5 uM incubated for 48 hrs by sulforhodamine B assay relative to control; assay type: functional; conditions: read-out: Activity
# HCT-15 = assay: Growth inhibition of human HCT15 cells assessed as cell growth at 5 uM incubated for 48 hrs by sulforhodamine B assay relative to control; assay type: functional; conditions: HCT-15, 48 h, read-out: Activity
# UACC-62 [15] = assay: Growth inhibition of human UACC62 cells assessed as cell growth at 5 uM incubated for 48 hrs by sulforhodamine B assay relative to control; assay type: functional; conditions: UACC-62, 48 h, read-out: Activity
# PC-3 [16] = assay: Growth inhibition of human PC3 cells assessed as cell growth at 5 uM incubated for 48 hrs by sulforhodamine B assay relative to control; assay type: functional; conditions: PC-3, 48 h, read-out: Activity
# MCF7 = assay: Growth inhibition of human MCF7 cells assessed as cell growth at 5 uM incubated for 48 hrs by sulforhodamine B assay relative to control; assay type: functional; conditions: MCF7, 48 h, read-out: Activity
# SNB-75 [17] = assay: Growth inhibition of human SNB75 cells assessed as cell growth at 50 uM incubated for 48 hrs by sulforhodamine B assay relative to control; assay type: functional; conditions: SNB-75, 48 h, read-out: Activity
# UACC-62 [18] = assay: Growth inhibition of human UACC62 cells assessed as cell growth at 50 uM incubated for 48 hrs by sulforhodamine B assay relative to control; assay type: functional; conditions: UACC-62, 48 h, read-out: Activity
# OVCAR-3 [19] = assay: Growth inhibition of human OVCAR3 cells assessed as cell growth at 50 uM incubated for 48 hrs by sulforhodamine B assay relative to control; assay type: functional; conditions: OVCAR-3, 48 h, read-out: Activity
# RXF 393 = assay: Growth inhibition of human RXF393 cells assessed as cell growth at 50 uM incubated for 48 hrs by sulforhodamine B assay relative to control; assay type: functional; conditions: RXF 393, 48 h, read-out: Activity
# PC-3 [20] = assay: Growth inhibition of human PC3 cells assessed as cell growth at 50 uM incubated for 48 hrs by sulforhodamine B assay relative to control; assay type: functional; conditions: PC-3, 48 h, read-out: Activity
# Chain of Serine/threonine-protein kinase B-raf (Homo sapiens, UniProt P15056, V600E) (P15056 2-766 V600E limits assumed): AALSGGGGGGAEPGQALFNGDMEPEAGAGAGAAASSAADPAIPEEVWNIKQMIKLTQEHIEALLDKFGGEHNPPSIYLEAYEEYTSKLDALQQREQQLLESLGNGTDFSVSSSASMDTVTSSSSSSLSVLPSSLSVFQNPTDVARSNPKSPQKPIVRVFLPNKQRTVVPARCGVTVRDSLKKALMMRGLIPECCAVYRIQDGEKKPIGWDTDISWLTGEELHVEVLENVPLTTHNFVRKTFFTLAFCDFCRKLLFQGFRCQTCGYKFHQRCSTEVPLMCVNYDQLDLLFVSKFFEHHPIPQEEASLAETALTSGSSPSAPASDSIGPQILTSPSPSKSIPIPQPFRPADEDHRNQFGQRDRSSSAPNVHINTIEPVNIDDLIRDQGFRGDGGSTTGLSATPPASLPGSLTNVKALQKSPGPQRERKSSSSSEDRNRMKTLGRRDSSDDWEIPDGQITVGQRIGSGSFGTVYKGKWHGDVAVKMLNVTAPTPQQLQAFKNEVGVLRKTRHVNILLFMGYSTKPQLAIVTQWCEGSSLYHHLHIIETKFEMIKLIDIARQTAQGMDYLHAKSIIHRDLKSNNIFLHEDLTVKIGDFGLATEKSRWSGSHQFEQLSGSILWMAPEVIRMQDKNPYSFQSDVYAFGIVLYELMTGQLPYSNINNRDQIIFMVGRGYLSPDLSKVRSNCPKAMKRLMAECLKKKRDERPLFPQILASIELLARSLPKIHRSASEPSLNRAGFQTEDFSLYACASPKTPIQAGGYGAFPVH
# Chain of Serine/threonine-protein kinase B-raf (Homo sapiens, UniProt P15056) (P15056 whole entry): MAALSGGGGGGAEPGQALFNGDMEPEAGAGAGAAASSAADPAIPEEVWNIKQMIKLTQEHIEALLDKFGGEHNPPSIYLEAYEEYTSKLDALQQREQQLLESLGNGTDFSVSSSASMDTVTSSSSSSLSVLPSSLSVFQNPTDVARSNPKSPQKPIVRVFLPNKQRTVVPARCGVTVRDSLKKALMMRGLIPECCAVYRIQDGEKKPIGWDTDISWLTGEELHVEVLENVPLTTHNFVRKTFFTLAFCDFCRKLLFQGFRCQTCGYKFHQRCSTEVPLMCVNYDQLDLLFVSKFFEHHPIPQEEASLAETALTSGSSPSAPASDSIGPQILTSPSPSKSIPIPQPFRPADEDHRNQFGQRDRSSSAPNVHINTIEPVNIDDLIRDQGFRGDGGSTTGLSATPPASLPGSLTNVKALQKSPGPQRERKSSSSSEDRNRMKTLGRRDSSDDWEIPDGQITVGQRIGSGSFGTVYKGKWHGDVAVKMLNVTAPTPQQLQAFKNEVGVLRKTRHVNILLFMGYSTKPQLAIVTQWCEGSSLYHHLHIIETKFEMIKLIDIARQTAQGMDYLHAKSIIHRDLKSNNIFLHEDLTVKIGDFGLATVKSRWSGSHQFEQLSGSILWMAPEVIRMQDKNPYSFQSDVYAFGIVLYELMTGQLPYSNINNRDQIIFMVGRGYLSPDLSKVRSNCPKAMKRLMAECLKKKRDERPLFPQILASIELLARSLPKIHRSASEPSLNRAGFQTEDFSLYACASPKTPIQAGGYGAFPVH
smiles,measurement,setting,value
COc1cc2cc(Oc3ccc(NC(=O)Nc4ccc(Cl)c(C(F)(F)F)c4)cc3)c(C)nc2cc1OC,IC50,[1],1330 nM
same,IC50,[2],260 nM
same,growth at 0.003 µM,EKVX [3],103%
COc1cc2cc(Oc3ccc(NC(=O)Nc4cccc(C(F)(F)F)c4)cc3)c(C)nc2cc1OC,growth at 0.05 µM,HL-60(TB) [4],101%
same,growth at 0.005 µM,HL-60(TB) [5],104%
same,growth at 0.005 µM,COLO 205 [6],97%
same,growth at 0.005 µM,SK-MEL-2 [7],102%
same,growth at 0.005 µM,DU-145 [8],103%
same,growth at 0.05 µM,EKVX [9],102%
same,growth at 0.05 µM,NCI-H226,104%
same,growth at 0.05 µM,OVCAR-8,103%
same,growth at 0.5 µM,RPMI-8226,86%
same,growth at 0.5 µM,HOP-62,100%
same,growth at 0.5 µM,NCI-H460,96%
same,growth at 0.5 µM,NCI-H522,90%
same,growth at 0.5 µM,COLO 205 [10],102%
same,growth at 0.5 µM,SF-268,96%
same,growth at 0.5 µM,SNB-75 [11],77%
same,growth at 0.5 µM,SK-MEL-2 [12],108%
same,growth at 0.5 µM,SK-MEL-28,92%
same,growth at 0.5 µM,SK-MEL-5,93%
same,growth at 0.5 µM,OVCAR-3 [13],105%
same,growth at 0.5 µM,786-0,95%
same,growth at 0.5 µM,DU-145 [14],104%
same,growth at 5 µM,SR,-19%
same,growth at 5 µM,HCT-15,18%
same,growth at 5 µM,UACC-62 [15],22%
same,growth at 5 µM,PC-3 [16],3%
same,growth at 5 µM,MCF7,3%
same,growth at 50 µM,SNB-75 [17],-46%
same,growth at 50 µM,UACC-62 [18],-44%
same,growth at 50 µM,OVCAR-3 [19],-57%
same,growth at 50 µM,RXF 393,-69%
same,growth at 50 µM,PC-3 [20],-65%
